Measured values published in PMC1977804, “Somatostatin binding in normal and malignant human gastrointestinal mucosa” (British Journal of Cancer, 1992).
Like-named read-outs stand apart in the source and are kept apart here. Bridges are numbered along the chain shown (N, C = ends). Where no end group is shown, it is not given here. The star is where a group is joined. 125I = [125I]*

Tests used:
[1] = tested on: somatostatin receptors, rat cerebral cortex membranes; assay: competitive displacement of 125I-tyr-11-somatostatin-14, rat cerebral cortex plasma membranes (positive control); format: binding, rat (Wistar)
Text: Br. J. Cancer (1992), 66, 391 395 ? Macmillan Press Ltd., 1992~~~~~~~~~~~~~~~~~~~~~~~~~~~~~~~~~~~~~~~~~~~~~~~~~~~~~~~~~~~~~~ Somatostatin binding in normal and malignant human gastrointestinal mucosa G.V. Miller, S.M. Farmery, L.F. Woodhouse & J.N. Primrose University Department of Surgery, St. James's University Hospital, Beckett Street, Leeds LS9 7TF, UK. Summary Somatostatin is a regulatory peptide implicated in the control of cellular proliferation in epithelial tissues and this regulation may occur directly via membrane bound receptor activation. The aim of this study was to investigate somatostatin binding in human gastrointestinal cancer and normal mucosa. Plasma membranes were prepared from specimens of tumour and normal mucosa from 51 patients undergoing surgical resection for malignancy (28 gastric, 23 colorectal). Using a competitive displacement assay, specific '251-tyrosine -1 -somatostatin-14 binding to plasma membranes was assessed and characterised in terms of receptor affinity (Kd) and maximum binding capacity (Bmax) as determined by Scatchard analysis. […] Similar affinity and binding capacity was demonstrable in normal mucosal samples. […] The functional significance of these low affinity binding sites requires elucidation to determine whether long-acting somatostatin analogues may have therapeutic benefit in gastrointestinal malignancy. Hormonal manipulation, by surgical or medical methods, has been used extensively in therapy for carcinoma of the breast, prostate, thyroid and in certain gut endocrine tumours (Horowitz et al., 1975; Higgins et al., 1941; Crile, 1957; Osei et al., 1985). There is, however, no currently defined role for endocrine therapy in non-endocrine gastrointestinal cancer. […] Any benefit from systemic therapy is usually abrogated by systemic toxicity (Rake et al., 1979; Engstrom et al., 1985; Bleiberg, 1990). For this reason a non-toxic, effective, treat- ment modality would be of value to improve the outlook for those patients with advanced disease. There is increasing evidence that tumours arising from the gastrointestinal tract are, at least in part, hormone depen- dent. Numerous hormones have now been implicated in the pathogenesis and development of gastrointestinal malig- nancy, including gastrin, epidermal growth factor, entero- pancreatic hormones and oestrogenic steroids (Sirinek et al., 1985; Watson et al., 1988; Li et al., 1980; Howatson & Carter, 1985; McMichael et al., 1980). […] Somatostatin and its analogues are good candidates for use as endocrine agents in the treatment of gastrointestinal cancer. […]

[2] = tested on: somatostatin binding sites, human gastric adenocarcinoma membranes; assay: competitive displacement of 125I-tyr-11-somatostatin-14, human gastric adenocarcinoma plasma membranes
Text: (§1) Br. J. Cancer (1992), 66, 391 395 ? Macmillan Press Ltd., 1992~~~~~~~~~~~~~~~~~~~~~~~~~~~~~~~~~~~~~~~~~~~~~~~~~~~~~~~~~~~~~~ Somatostatin binding in normal and malignant human gastrointestinal mucosa G.V. Miller, S.M. Farmery, L.F. Woodhouse & J.N. Primrose University Department of Surgery, St. James's University Hospital, Beckett Street, Leeds LS9 7TF, UK. Summary Somatostatin is a regulatory peptide implicated in the control of cellular proliferation in epithelial tissues and this regulation may occur directly via membrane bound receptor activation. The aim of this study was to investigate somatostatin binding in human gastrointestinal cancer and normal mucosa. Plasma membranes were prepared from specimens of tumour and normal mucosa from 51 patients undergoing surgical resection for malignancy (28 gastric, 23 colorectal). Using a competitive displacement assay, specific '251-tyrosine -1 -somatostatin-14 binding to plasma membranes was assessed and characterised in terms of receptor affinity (Kd) and maximum binding capacity (Bmax) as determined by Scatchard analysis. […] Similar affinity and binding capacity was demonstrable in normal mucosal samples. […] The functional significance of these low affinity binding sites requires elucidation to determine whether long-acting somatostatin analogues may have therapeutic benefit in gastrointestinal malignancy. Hormonal manipulation, by surgical or medical methods, has been used extensively in therapy for carcinoma of the breast, prostate, thyroid and in certain gut endocrine tumours (Horowitz et al., 1975; Higgins et al., 1941; Crile, 1957; Osei et al., 1985). There is, however, no currently defined role for endocrine therapy in non-endocrine gastrointestinal cancer. […] Any benefit from systemic therapy is usually abrogated by systemic toxicity (Rake et al., 1979; Engstrom et al., 1985; Bleiberg, 1990). For this reason a non-toxic, effective, treat- ment modality would be of value to improve the outlook for those patients with advanced disease. There is increasing evidence that tumours arising from the gastrointestinal tract are, at least in part, hormone depen- dent. Numerous hormones have now been implicated in the pathogenesis and development of gastrointestinal malig- nancy, including gastrin, epidermal growth factor, entero- pancreatic hormones and oestrogenic steroids (Sirinek et al., 1985; Watson et al., 1988; Li et al., 1980; Howatson & Carter, 1985; McMichael et al., 1980). […] Somatostatin and its analogues are good candidates for use as endocrine agents in the treatment of gastrointestinal cancer. The native peptide is widely distributed in the body and, amongst its many inhibitory actions, has a putative role as an anti-proliferative agent in both normal (Lehy et al., 1979) and malignant (Singh et al., 1986) tissue. The mechanisms involved in this anti-proliferative action have not, as yet, been confirmed. Both the native peptide and its analogues act at the somatotrophs of the anterior pituitary suppressing growth hormone production and release (Adrian et al., 1981). This may influence the proliferation of target tissues directly or may result in a substantial reduction in local growth factor release (Kirkegaard et al., 1984). Further, the production of other trophic hormones such as gastrin Correspondence: J.N. Primrose, University Department of Surgery, Clinical Sciences Building, St James's University Hospital, Beckett St, Leeds LS9 7TF, UK. Received 18 November 1991; and in revised form 9 March 1992. and insulin, either from normal cells or from hormonally active tumour cells, could be suppressed by somatostatin (Morris et al., 1988). The most interesting mechanism, how- ever, involves the interaction of the peptide with specific membrane bound receptors upon proliferating cells. […]

[3] = native peptide; no reference printed for this sentence; cited from earlier work
Text: Br. J. Cancer (1992), 66, 391 395 ? Macmillan Press Ltd., 1992~~~~~~~~~~~~~~~~~~~~~~~~~~~~~~~~~~~~~~~~~~~~~~~~~~~~~~~~~~~~~~ Somatostatin binding in normal and malignant human gastrointestinal mucosa G.V. Miller, S.M. Farmery, L.F. Woodhouse & J.N. Primrose University Department of Surgery, St. James's University Hospital, Beckett Street, Leeds LS9 7TF, UK. Summary Somatostatin is a regulatory peptide implicated in the control of cellular proliferation in epithelial tissues and this regulation may occur directly via membrane bound receptor activation. The aim of this study was to investigate s ...

[4] = tested on: somatostatin binding sites, colorectal adenocarcinoma plasma membranes; assay: competitive displacement of 125I-tyr-11-somatostatin-14, human colorectal adenocarcinoma plasma membranes; settings: for Bmax: Table I, colorectal
Text: as §1

[5] = tested on: somatostatin binding sites, normal colonic mucosa plasma membranes; assay: competitive displacement of 125I-tyr-11-somatostatin-14, normal colonic mucosa plasma membranes; design: species or system human; settings: 15 of 23 preparations; Scatchard/LIGAND; pH 7.4, 1 h, 35 °C; median (quartiles)
Text: (§2) Br. J. Cancer (1992), 66, 391 395 ? Macmillan Press Ltd., 1992~~~~~~~~~~~~~~~~~~~~~~~~~~~~~~~~~~~~~~~~~~~~~~~~~~~~~~~~~~~~~~ Somatostatin binding in normal and malignant human gastrointestinal mucosa G.V. Miller, S.M. Farmery, L.F. Woodhouse & J.N. Primrose University Department of Surgery, St. James's University Hospital, Beckett Street, Leeds LS9 7TF, UK. Summary Somatostatin is a regulatory peptide implicated in the control of cellular proliferation in epithelial tissues and this regulation may occur directly via membrane bound receptor activation. The aim of this study was to investigate somatostatin binding in human gastrointestinal cancer and normal mucosa. Plasma membranes were prepared from specimens of tumour and normal mucosa from 51 patients undergoing surgical resection for malignancy (28 gastric, 23 colorectal). Using a competitive displacement assay, specific '251-tyrosine -1 -somatostatin-14 binding to plasma membranes was assessed and characterised in terms of receptor affinity (Kd) and maximum binding capacity (Bmax) as determined by Scatchard analysis. […] Similar affinity and binding capacity was demonstrable in normal mucosal samples. […] The functional significance of these low affinity binding sites requires elucidation to determine whether long-acting somatostatin analogues may have therapeutic benefit in gastrointestinal malignancy. […]

[6] = tested on: somatostatin binding sites, gastric body mucosal plasma membranes; assay: competitive displacement of 125I-tyr-11-somatostatin-14, normal gastric body mucosa plasma membranes; design: species or system human; settings: 21 of 28 preparations, including mucosa of the patient with high affinity tumour, Scatchard/LIGAND, pH 7.4, 1 h, 35 °C, median (quartiles)
Text: as §2

Substance: 125I-tyrosine-11-somatostatin-14 (AGCKNFFWKTY(125I)TSC; disulfide 3-14; ends not checked; UniProt P61278 103-116, looked up, variant F11Y) [125I-tyr-11-somatostatin-14, radioligand made by Chloramine T iodination of tyr-11-somatostatin-14]
- increase in specific bound counts at 35 °C versus 21 °C ([1]; 35 °C versus room temperature (21 °C)): 20-30%
- Bmax, low affinity binding ([2]; 22 of 28 tumours, Scatchard/LIGAND, pH 7.4, 1 h, 35 °C, median (quartiles)): 1.2 (0.7-5.7) pmol mg-1 protein
- Kd ([2]; 22 of 28 tumours, Scatchard/LIGAND, pH 7.4, 1 h, 35 °C, median (quartiles), read-out: affinity (Kd), low affinity binding): 170 nM

Substance: somatostatin-14
- half life in the circulation [3]: less than 3 min
- Bmax ([1]; Figure 1 inset, single representative experiment, Scatchard plot by LIGAND): 0.21 pmol mg-1 protein
- Kd ([1]; Figure 1 inset, single representative experiment, Scatchard plot by LIGAND, read-out: Kd): 0.92 nM
- Kd ([1]; Scatchard/LIGAND, HEPES-KOH pH 7.4, 1 h, 35 °C, median (range), read-out: receptor affinity (Kd)): 0.85 nM
- Bmax, low affinity high capacity binding ([4]; 17 of 23 preparations, Scatchard/LIGAND, pH 7.4, 1 h, 35 °C, median (quartiles)): 1.8 (1.2-2.9) pmol mg-1 protein
- Bmax ([4]; grade Mod, pH 7.4, 1 h, 35 °C, median (quartiles)): 1.72 (1.30-2.69) pmol mg-1 protein
- Bmax ([4]; grade Poor, pH 7.4, 1 h, 35 °C, median (quartiles)): 1.81 (0.74-2.87) pmol mg-1 protein
- Bmax ([4]; grade Well, pH 7.4, 1 h, 35 °C, median (quartiles)): 1.75 (0.49-2.99) pmol mg-1 protein
- Bmax ([4]; site: (R) Colon, pH 7.4, 1 h, 35 °C, median (quartiles)): 2.99 (2.12-3.94) pmol mg-1 protein
- Bmax ([4]; site: Rectum, pH 7.4, 1 h, 35 °C, median (quartiles)): 1.67 (1.02-2.78) pmol mg-1 protein
- Bmax ([4]; site: Sigmoid, pH 7.4, 1 h, 35 °C, median (quartiles)): 0.49 (0.11 -1.75) pmol mg-1 protein
- Bmax ([4]; stage A (Dukes), pH 7.4, 1 h, 35 °C, one sample): 3.40 pmol mg-1 protein
- Bmax ([4]; stage B (Dukes), pH 7.4, 1 h, 35 °C, median (quartiles)): 1.72 (1.30-2.99) pmol mg-1 protein
- Bmax ([4]; stage C (Dukes), pH 7.4, 1 h, 35 °C, median (quartiles)): 1.48 (0.62-2.41) pmol mg-1 protein
- Bmax, low affinity high capacity binding ([4]; abstract, 17 colorectal cancers, Scatchard analysis): 1.8 pmol mg-1 protein
- Kd ([4]; abstract, 17 colorectal cancers, Scatchard analysis, read-out: Kd, low affinity binding): 140 nM
- Bmax ([2]; Figure 2 inset, single representative experiment, Scatchard plot): 6.1 pmol mg-1 protein
- Kd ([2]; Figure 2 inset, single representative experiment, Scatchard plot, read-out: Kd): 165 nM
- Bmax ([2]; Table I, gastric, grade Mod, pH 7.4, 1 h, 35 °C, median (quartiles)): 1.04 (0.23-6.23) pmol mg-1 protein
- Bmax ([2]; Table I, gastric, grade Poor, pH 7.4, 1 h, 35 °C, median (quartiles)): 1.17 (0.67-5.71) pmol mg-1 protein
- Bmax ([2]; Table I, gastric, grade Well, pH 7.4, 1 h, 35 °C, one sample): 5.11 pmol mg-1 protein
- Bmax ([2]; Table I, gastric, site: Antrum, pH 7.4, 1 h, 35 °C, median (quartiles)): 1.04 (0.67 -3.36) pmol mg-1 protein
- Bmax ([2]; Table I, gastric, site: Body, pH 7.4, 1 h, 35 °C, median (quartiles)): 0.83 (0.25 -7.43) pmol mg-1 protein
- Bmax ([2]; Table I, gastric, site: Cardia, pH 7.4, 1 h, 35 °C, median (quartiles)): 1.73 (1.23-5.11) pmol mg-1 protein
- Bmax ([2]; Table I, gastric, stage I (TNM), pH 7.4, 1 h, 35 °C, one sample): 0.28 pmol mg-1 protein
- Bmax ([2]; Table I, gastric, stage II (TNM), pH 7.4, 1 h, 35 °C, median (quartiles)): 0.79 (0.23-1.04) pmol mg-1 protein
- Bmax ([2]; Table I, gastric, stage III (TNM), pH 7.4, 1 h, 35 °C, median (quartiles)): 1.24 (0.77-6.11) pmol mg-1 protein
- Bmax ([2]; Table I, gastric, stage IV (TNM), pH 7.4, 1 h, 35 °C, one sample): 6.3 pmol mg-1 protein
- Bmax, low affinity high capacity binding ([2]; abstract, 22 gastric cancers, Scatchard analysis): 1.2 pmol mg-1 protein
- Bmax, high affinity receptors ([2]; one gastric carcinoma (one patient), Scatchard/LIGAND): 0.23 pmol mg-1 protein
- Kd ([2]; one gastric carcinoma (one patient), Scatchard/LIGAND, read-out: Kd, high affinity receptors): 0.9 nM
- Bmax [5]: 0.7 (0.3-3.5) pmol mg-1 protein
- Kd [5]: 130 nM
- Bmax, low affinity high capacity binding [6]: 3.9 (1.2-6.6) pmol mg-1 protein
- Kd ([6]; read-out: Kd, low affinity high capacity binding): 180 nM
